Patent US6914064B2, “1,4-Disubstituted piperazine derivatives useful as uro-selective α1-adrenoceptor blockers” (Ranbaxy Laboratories Limited, priority 2000, dated 2005)

Key:
[1] = molecular target: T1, α1A adrenoceptor (prostate) (Rattus norvegicus, UniProt P43140); assay: In vitro functional study, antagonism of phenylepinephrine-induced contraction of prostate; assay type: biochemical; conditions: for Selectivity α1A/α1B / Selectivity α1A/α1D: functional assays, from pKB values; for Kb: prostate, phenylepinephrine, tested compound at 0.1, 1 and 10 mM, read-out: α Adrenoceptor Subtype (pKB) α1A (converted)
T1 construct: from tissue; host or cells: isolated prostate tissue
T1 sequence (P43140 1-466): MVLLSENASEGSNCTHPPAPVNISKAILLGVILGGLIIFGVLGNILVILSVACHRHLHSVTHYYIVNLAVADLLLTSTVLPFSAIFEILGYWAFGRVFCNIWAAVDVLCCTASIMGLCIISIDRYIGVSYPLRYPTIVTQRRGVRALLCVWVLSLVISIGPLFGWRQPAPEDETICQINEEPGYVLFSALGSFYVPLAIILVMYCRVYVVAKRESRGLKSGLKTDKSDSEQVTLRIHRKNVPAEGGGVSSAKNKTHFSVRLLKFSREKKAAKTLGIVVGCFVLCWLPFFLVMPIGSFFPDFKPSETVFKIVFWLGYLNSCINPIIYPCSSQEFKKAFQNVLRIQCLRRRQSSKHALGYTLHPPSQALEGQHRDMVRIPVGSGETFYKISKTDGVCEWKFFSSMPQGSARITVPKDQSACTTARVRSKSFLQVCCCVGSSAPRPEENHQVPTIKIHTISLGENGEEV
Source text: (§1) In order to study selectivity of action of these compounds towards different α-adrenoceptor subtypes, the ability of these compounds to antagonise α1-adrenoceptor agonist induced contractile response on aorta (α1Dprostate (α1A and spleen (α1B was studied. Aorta and spleen tissues were isolated from urethane anaesthetised (1.5 gm/kg) male wistar rats. Isolated tissues were mounted in organ bath containing Krebs Henseleit buffer of following composition (mM): NaCl 118; KCl 4.7; CaCl2 2.5; MgSO4. 7H2O 1.2; NaHCO3 25; KH2PO41.2; glucose 11.5. Buffer was maintained at 37° C. and aereated with a mixture of 95% O2 and 5% CO2. A resting tension of 2 g (aorta) or 1 g (spleen and prostate)was applied to tissues. Contractile response was monitored using a force displacement transducer and recorded on chart recorders. Tissues were allowed to equilibrate for 2 hours. At the end of equilibration period, concentration response curves to norepinephrine (aorta) and phenylepinephrine (spleen and prostate) were obtained in absence and presence of tested compound (at concentration of 0.1,1 and 10 mM). Antagonist affinity was calculated and expressed as pKB vales in Table II.

[2] = molecular target: T2, α1B adrenoceptor (spleen) (Rattus norvegicus, UniProt P15823); assay: In vitro functional study, antagonism of phenylepinephrine-induced contraction of spleen; assay type: biochemical; conditions: tested compound at 0.1, 1 and 10 mM, read-out: α Adrenoceptor Subtype (pKB) α1B (converted)
T2 construct: Isolated tissues were mounted in organ bath containing Krebs Henseleit buffer; from tissue; host or cells: isolated spleen of male wistar rats
T2 sequence (P15823 1-515): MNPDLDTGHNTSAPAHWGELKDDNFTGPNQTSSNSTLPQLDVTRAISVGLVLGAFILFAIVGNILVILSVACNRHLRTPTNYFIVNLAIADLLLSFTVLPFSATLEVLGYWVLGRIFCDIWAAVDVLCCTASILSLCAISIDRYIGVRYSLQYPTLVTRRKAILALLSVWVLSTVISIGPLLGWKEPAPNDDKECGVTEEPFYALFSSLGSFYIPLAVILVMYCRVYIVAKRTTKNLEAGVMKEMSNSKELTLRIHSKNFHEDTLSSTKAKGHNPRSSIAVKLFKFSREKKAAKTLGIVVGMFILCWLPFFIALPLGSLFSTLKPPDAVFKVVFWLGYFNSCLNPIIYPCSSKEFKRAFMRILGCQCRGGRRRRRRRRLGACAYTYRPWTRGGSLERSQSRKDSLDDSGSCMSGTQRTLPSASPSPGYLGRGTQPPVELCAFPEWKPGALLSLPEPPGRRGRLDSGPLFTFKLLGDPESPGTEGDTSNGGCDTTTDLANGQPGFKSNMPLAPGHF
Source text: as §1

α1A adrenoceptor = molecular target: T3, α1A adrenoceptor (Rattus norvegicus, UniProt P43140); assay: Receptor binding assay, displacement of [3H]prazosin, rat submaxillary membranes; conditions: for Ki: [3H]prazosin displacement, rat submaxillary membranes, read-out: α1A (Rat submaxillary) Ki; for Selectivity α1B/α1A: ratio of Ki α1B (rat liver) / α1A (rat submaxillary)
T3 construct: from tissue; host or cells: rat submaxillary gland membranes
T3 sequence (P43140 1-466): T1 sequence (P43140 1-466)
Method: Receptor binding assays were performed using native α-adrenoceptors.
(§2) Submaxillary glands were isolated immediately after sacrifice. The liver was perfused with buffer (Tris HCl 50 mM, NaCl 100 mM, 10 mM EDTA pH 7.4). The tissues were homogenised in 10 volumes of buffer (Tris HCl 50 mM, NaCl 100 mM, EDTA 10 mM, pH 7.4). The homogenate was filtered through two layers of wet gauze and filtrate was centrifuged at 500 g for 10 min. The supernatant was subsequently centrifuged at 40,000 g for 45 min. The pellet thus obtained was resuspended in the same volume of assay buffer (Tris HCl 50 mM, EDTA 5 mM, pH 7.4) and were stored at −70° C. until the time of assay.
(§3) The membrane homogenates (150-250 μg protein) were incubated in 250 μl of assay buffer (Tris HCl 50 mM, EDTA 5 mM, pH 7.4) at 24-25° C. for 1 h. Non-specific binding was determined in the presence of 300 nM prazosin. The incubation was terminated by vacuum filtration over GF/B fibre filters. The filters were then washed with ice cold 50 mM Tris HCl buffer (pH 7.4). The filtermats were dried and bound radioactivity retained on filters was counted.The IC50 & Kd were estimated by using the non-linear curve fitting program using G Pad Prism software.

α1D adrenoceptor (aorta) = molecular target: T4, α1D adrenoceptor (aorta) (Rattus norvegicus, UniProt P23944); assay: In vitro functional study, antagonism of norepinephrine-induced contraction of aorta; assay type: biochemical; conditions: tested compound at 0.1, 1 and 10 mM, read-out: α Adrenoceptor Subtype (pKB) α1D (converted)
T4 construct: Isolated tissues were mounted in organ bath containing Krebs Henseleit buffer; from tissue; host or cells: isolated aorta of male wistar rats
T4 sequence (P23944 1-561): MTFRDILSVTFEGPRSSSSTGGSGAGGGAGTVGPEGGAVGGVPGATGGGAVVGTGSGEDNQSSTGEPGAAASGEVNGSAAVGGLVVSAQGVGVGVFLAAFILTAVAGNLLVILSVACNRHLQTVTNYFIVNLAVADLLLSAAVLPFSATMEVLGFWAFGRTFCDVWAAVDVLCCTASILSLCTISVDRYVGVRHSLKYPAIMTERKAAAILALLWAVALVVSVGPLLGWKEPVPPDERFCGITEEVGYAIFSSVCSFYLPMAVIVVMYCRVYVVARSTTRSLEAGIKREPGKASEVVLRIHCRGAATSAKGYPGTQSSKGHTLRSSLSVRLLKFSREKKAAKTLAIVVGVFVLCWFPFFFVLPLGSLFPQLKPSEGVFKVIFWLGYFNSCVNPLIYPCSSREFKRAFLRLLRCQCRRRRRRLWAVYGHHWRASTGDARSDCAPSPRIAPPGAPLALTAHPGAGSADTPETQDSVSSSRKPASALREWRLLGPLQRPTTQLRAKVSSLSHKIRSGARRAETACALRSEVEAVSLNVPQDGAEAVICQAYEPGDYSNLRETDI
Source text: as §1

α1B adrenoceptor = molecular target: T5, α1B adrenoceptor (Rattus norvegicus, UniProt P15823); assay: Receptor binding assay, displacement of [3H]prazosin, rat liver membranes; conditions: [3H]prazosin displacement, rat liver membranes; read-out: α1B (Rat liver) Ki
T5 construct: from tissue; host or cells: rat liver membranes
T5 sequence (P15823 1-515): T2 sequence (P15823 1-515)
Method: Receptor binding assays were performed using native α-adrenoceptors. The affinity of different compounds for α1A and α1B adrenoceptor subtypes was evaluated by studying their ability to displace specific [^3H]prazosin binding from the membranes of rat submaxillary and liver respectively (Michel et al, Br J Pharmacol, 98, 883-889 (1989)). The binding assays were performed according to U'Prichard et al. (Eur J Pharmacol, 50:87-89 (1978)) with minor modifications.
as §2
as §3, with “software. The value of inhibition constant Ki was calculated from competitive binding studies by using Cheng & Prusoff equation (Cheng & Prusoff, Biochem Pharmacol, 1973,22: 3099-3108), Ki=IC50/(1+L/Kd) where L is the concentration of [^3H]prazosin used in the particular experiment (Table I).” for “software.”

SMILES: COc1ccc(F)cc1N1CCN(CCCN2C(=O)C3CC=CCC3C2=O)CC1.Cl (stereo not shown) [Compound 08, 2-[3-{4-(2-Methoxy-5-fluorophenyl)piperazin-1-yl}propyl]-3a,4,7,7a-tetrahydro-1H-isoindole-1,3(2H)-dione hydrochloride]
- Selectivity α1A/α1B [1]: 3.4
- Kb [1]: 1.17 nM
- melting point: 163 to 165 °C
- Kb [2]: 3.98 nM
- Ki (α1A adrenoceptor): 0.34 nM
- Selectivity α1B/α1A (α1A adrenoceptor): 85
- Kb (α1D adrenoceptor (aorta)): 0.891 nM
- Ki (α1B adrenoceptor): 29 nM

SMILES: CCc1ccccc1N1CCN(CCCN2C(=O)C3CC=CCC3C2=O)CC1.Cl (stereo not shown) [Compound 09, 2-[3-{4-(2-Ethylphenyl)piperazin-1-yl}propyl]-3a,4,7,7a-tetrahydro-1H-isoindole-1,3(2H)-dione hydrochloride]
- Selectivity α1A/α1B [1]: 23
- Selectivity α1A/α1D [1]: 3.6
- Kb [1]: 0.676 nM
- melting point: 232.5 to 233.5 °C
- Kb [2]: 15.8 nM
- Ki (α1A adrenoceptor): 0.3 nM
- Selectivity α1B/α1A (α1A adrenoceptor): 207
- Kb (α1D adrenoceptor (aorta)): 2.51 nM
- Ki (α1B adrenoceptor): 62 nM

SMILES: Cl.O=C1C2CC=CCC2C(=O)N1CCCN1CCN(c2ccccc2)CC1 (stereo not shown) [Compound 13, 2-[3-{4-(Phenyl)piperazin-1-yl}propyl]-3a,4,7,7a-tetrahydro-1H-isoindole-1,3(2H)-dione hydrochloride]
- Selectivity α1A/α1B [1]: 89
- Selectivity α1A/α1D [1]: 5.6
- Kb [1]: 9.12 nM
- melting point: 231 to 232 °C
- Kb [2]: 813 nM
- Ki (α1A adrenoceptor): 6.3 nM
- Selectivity α1B/α1A (α1A adrenoceptor): 61
- Kb (α1D adrenoceptor (aorta)): 51.3 nM
- Ki (α1B adrenoceptor): 384 nM

SMILES: CCCCCCOc1ccccc1N1CCN(CCCN2C(=O)C3CC=CCC3C2=O)CC1.Cl (stereo not shown) [Compound 25, 2-[3-{4-(2-n-Hexyloxyphenyl)piperazin-1-yl}propyl]-3a,4,7,7a-tetrahydro-1H-isoindole-1,3(2H)-dione hydrochloride]
- Selectivity α1A/α1B [1]: 54
- Kb [1]: 1.26 nM
- melting point: 165 to 166 °C
- Kb [2]: 67.6 nM
- Ki (α1A adrenoceptor): 3.3 nM
- Selectivity α1B/α1A (α1A adrenoceptor): >151
- Kb (α1D adrenoceptor (aorta)): 1 nM
- Ki (α1B adrenoceptor): > 500 nM

SMILES: COc1ccccc1N1CCN(C(C)CCN2C(=O)C3CC=CCC3C2=O)CC1.Cl (stereo not shown) [Compound 29, 2-[3-{4-(2-Methoxyphenyl)piperazin-1-yl}-3-methylpropyl]-3a,4,7,7a-tetrahydro-1H-isoindole-1,3(2H)-dione hydrochloride]
- Selectivity α1A/α1B [1]: 18
- Kb [1]: 87.1 nM
- melting point: 219 to 220 °C
- Kb [2]: 1580 nM
- Ki (α1A adrenoceptor): 3.45 nM
- Selectivity α1B/α1A (α1A adrenoceptor): 205
- Kb (α1D adrenoceptor (aorta)): 33.9 nM
- Ki (α1B adrenoceptor): 708 nM

SMILES: CCOc1ccccc1N1CCN(C(C)CCN2C(=O)C3CC=CCC3C2=O)CC1.Cl (stereo not shown) [Compound 31, 2-[3-{4-(2-Ethoxyphenyl)piperazin-1-yl}-3-methylpropyl]-3a,4,7,7a-tetrahydro-1H-isoindole-1,3(2H)-dione hydrochloride]
- Selectivity α1A/α1D [1]: 3.24
- Kb [1]: 5.01 nM
- melting point: 246 to 248 °C
- Ki (α1A adrenoceptor): 2.1 nM
- Selectivity α1B/α1A (α1A adrenoceptor): 110
- Kb (α1D adrenoceptor (aorta)): 16.2 nM
- Ki (α1B adrenoceptor): 232 nM
